Measurements published in ChEMBL document CHEMBL5331062, “2,6-Difluorobenzamide derivatives as store-operated calcium channel (SOC) inhibitors” (Eur J Med Chem, 2022).
Activity calls are given as the source filed them. The calls are words filed in the database; no cut-off is given here.

Legend:
[1] = test system: Caco-2; experiment: Inhibition of SOC activity in human Caco-2 cells co-transfected with STIM1-YFP/Orai1-mCherry assessed as reduction in thapsigargin induced STIM1-Orai1 interaction at 1 uM preincubated with compound for 30 mins followed by thapsigargin induction by time-lapse TIRF-FRET assay; format: cell-based
[2] = test system: Caco-2; experiment: Inhibition of cell invasion in human Caco-2 cells assessed as suppression of cell growth at 1 uM measured after 48 hrs by crystal violet staining based analysis; format: functional
[3] = test system: Caco-2; experiment: Inhibition of SOC activity in human Caco-2 cells co-transfected with STIM1-YFP/Orai1-mCherry assessed as reduction in thapsigargin induced STIM1-Orai1 interaction at 1 uM preincubated with thapsigargin for 2 mins followed by compound treatment by calcium influx assay; format: cell-based
[4] = test system: Caco-2; experiment: Inhibition of SOC activity in human Caco-2 cells at 1 uM induced by thapsigargin for 5 mins followed by Ca2+ […] addition and measured after 5 mins after compound addition by Ca2+ imaging method; format: cell-based
[5] = Cmax in Sprague-Dawley rat at 20 mg/kg, po measured upto 24 hrs by LC-MS/MS analysis; format: ADME, organism-based; design: dose 20 mg/kg, time < 24 hrs, route po; settings: in vivo
[6] = Half life in Sprague-Dawley rat at 20 mg/kg, po measured upto 24 hrs by LC-MS/MS analysis; format: ADME, organism-based; settings: in vivo
[7] = test system: Caco-2; experiment: Inhibition of cell migration in human Caco-2 cells assessed as suppression of cell growth at 1 uM measured after 48 hrs by transwell migration assay; format: functional, cell-based
[8] = Tmax in Sprague-Dawley rat at 20 mg/kg, po measured upto 24 hrs by LC-MS/MS analysis; format: ADME, organism-based; settings: in vivo
[9] = test system: Caco-2; experiment: Inhibition of cell migration in human Caco-2 cells assessed as reduction in cell motility at 1 uM measured after 24 hrs by wound healing assay; format: functional, cell-based
[10] = test system: Caco-2; experiment: Inhibition of SOC activity in human Caco-2 cells assessed as stabilization of STIM1-EB1 complex by immunoprecipitation-Western blot analysis; format: cell-based
[11] = Volume of distribution at steady state in Sprague-Dawley rat at 2 mg/kg, iv measured upto 24 hrs by LC-MS/MS analysis; format: ADME, organism-based; settings: in vivo, read-out: Vdss
[12] = AUC (0 to infinity) in Sprague-Dawley rat at 2 mg/kg, iv measured upto 24 hrs by LC-MS/MS analysis; format: ADME, organism-based; design: dose 2 mg/kg, time < 24 hrs, route iv; settings: in vivo
[13] = AUC (0 to infinity) in Sprague-Dawley rat at 20 mg/kg, po measured upto 24 hrs by LC-MS/MS analysis; format: ADME, organism-based; design: dose 20 mg/kg, time < 24 hrs, route po; settings: in vivo
[14] = test system: Caco-2; experiment: Inhibition of SOC activity in human Caco-2 cells co-transfected with STIM1-YFP/Orai1-mCherry assessed as reduction in thapsigargin induced STIM1-Orai1 interaction at 1 uM preincubated with thapsigargin for 2 mins followed by compound treatment by time-lapse TIRF-FRET assay; format: cell-based
[15] = Oral bioavailability in Sprague-Dawley rat at 20 mg/kg measured upto 24 hrs by LC-MS/MS analysis; format: ADME, organism-based; settings: in vivo
[16] = Half life in Sprague-Dawley rat at 2 mg/kg, iv measured upto 24 hrs by LC-MS/MS analysis; format: ADME, organism-based; settings: in vivo
[17] = Clearance in Sprague-Dawley rat at 2 mg/kg, iv measured upto 24 hrs by LC-MS/MS analysis; format: ADME, organism-based; settings: in vivo
[18] = test system: Caco-2; experiment: Antiproliferative activity against human Caco-2 cells assessed as reduction in cell growth incubated for 24 hrs by WST-8 cell proliferation assay; format: functional, cell-based

Cmax [5]	half-life [6]	Tmax [8]	Vd [11]	AUC(0-inf) [12]	AUC(0-inf) [13]	bioavailability [15]	half-life [16]	clearance [17]	SMILES	inhibition [1]	inhibition [3]	inhibition [4]	inhibition [9]	Activity [18]	also measured
2.16 µg/mL	16 h	6 h	3.9 L/kg	15.9 µg·h/mL	54 µg·h/mL	34%	24 h	0.144 L/h/kg	O=C(Nc1ccc(-c2ccc(F)cc2)cn1)c1c(F)cccc1F	Active	Active	Active	Active	inactive	inhibition [2]: Active; inhibition [7]: Active; inhibition [10]: Active; inhibition [14]: Active
–	–	–	–	–	–	–	–	–	O=C(Nc1ccc(-c2ccco2)cn1)c1c(F)cccc1F	–	–	Active	Active	–	–
–	–	–	–	–	–	–	–	–	O=C(Nc1ccc(NC(=O)c2c(F)cccc2F)cc1)c1cncc(F)c1	–	–	Active	–	–	–
–	–	–	–	–	–	–	–	–	COc1ccc(-c2ccc(NC(=O)c3c(F)cccc3F)nc2)cc1OC	–	–	Active	–	–	–
–	–	–	–	–	–	–	–	–	O=C(Nc1ccc(-c2cccc(Cl)c2)cn1)c1c(F)cccc1F	–	–	–	Active	–	–
0.257 µg/mL	2.5 h	3.3 h	2.4 L/kg	0.969 µg·h/mL	2 µg·h/mL	20.6%	5.2 h	2.06 L/h/kg	COc1ccc(OC)c(-c2ccc(NC(=O)c3ccncc3F)cc2)c1	Active	Active	–	–	inactive	–
